According to patent publication US12466817B2, “Pyridine derivative and application thereof” (Nicoya Therapeutics (Shanghai) Co., Ltd, priority 2020, dated 2025):
pIC50: −log10 of the molar value.

Assays:
CCR2 = molecular target: T1, CCR2 (Homo sapiens, UniProt P41597); assay: CCR2 FLIPR Calcium assay (intracellular calcium signaling); format: cell-based; conditions: HEK293 host cells, clone C7; agonist MCP-1; Fluo-4 calcium signal
T1 construct: expressed in transfected cells; host or cells: HEK293, clone C7, passage P6
T1 sequence (P41597 whole entry, species assumed): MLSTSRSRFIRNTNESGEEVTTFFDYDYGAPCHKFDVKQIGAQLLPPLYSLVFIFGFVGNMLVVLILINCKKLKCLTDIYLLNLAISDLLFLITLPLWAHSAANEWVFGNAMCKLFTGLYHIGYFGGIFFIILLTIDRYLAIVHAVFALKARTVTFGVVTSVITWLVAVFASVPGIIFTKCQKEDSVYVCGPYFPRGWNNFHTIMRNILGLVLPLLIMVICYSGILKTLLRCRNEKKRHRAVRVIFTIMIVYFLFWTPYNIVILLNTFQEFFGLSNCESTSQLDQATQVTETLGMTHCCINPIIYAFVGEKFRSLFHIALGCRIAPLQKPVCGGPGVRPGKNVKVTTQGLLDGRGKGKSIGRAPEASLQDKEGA
Description: (§1) The inhibitory effects of the compounds on CCR2 and CCR5 receptors were evaluated by detecting intracellular calcium signaling changes by FLIPR Calcium assay, using the IC50 values of the compounds as indicators.
(§2) 1. Cell lines: The cells were seeded and incubated overnight at 37° C. in a 5% CO2 incubator CCR2/CCR5 density: 1 M (20 k/well)
(§3) 2. Reagent: Fluo-4 Direct, (Invitrogen, Cat #F10471)
(§4) The compound was prepared by dissolving in DMSO to a 10 mM solution, and the compound solution was placed in a nitrogen chamber.
(§5) Preparation of probenecid in FLIPR assay buffer: 1 mL of FLIPR assay buffer was added to 77 mg of probenecid to make a 250 mM solution. The solution was prepared every day to keep fresh.
(§6) 2× (8 μM) Fluo-4 Direct™ loading buffer (10 mL of each)
(§7) 0.2 mL of probenecid was added to each 10 mL of Fluo-Direct. The final measured concentration was 2.5 mM MCP-1 was diluted in FLIPR assay buffer 1:2 for 10 spots, starting at 0.5 μM (eventually to […]). RANTES was diluted in FLIPR assay buffer 1:3 for 10 spots, starting at 0.5 μM (eventually to […]). 20 μL of serially diluted compound buffer was added to each well of the DRC plate.
(§8) The standard compound was diluted in DMSO 1:3 for 11 points, starting at 1 mM.
(§9) The test compound was diluted in DMSO 1:3 for 11 spots, starting at 2 mM. 250 nL of compound solution was transferred to cell plates using Echo (Greiner #781946) c) The cell plate was taken from the incubator and 20 μL of 2× Fluo-4 Direct no wash loading buffer was gently dispensed into a 384-well cell culture plate using a pipette. The volume in the final cell plate was 40 μL […]
(§10) d) Incubation was conducted at 37° C. 5% CO2 for 50 minutes, at room temperature for 10 minutes e) The cell plate was taken from the incubator and placed in the FLIPR. The composite plate and pipette tip box were placed in the FLIPR
(§11) 5) The “Max-Min” was calculated from Read 90 to the maximum allowed. EC80 values for each cell line were calculated using FLIPR
(§12) 6) Agonist reference compound at 5 times EC80 concentration was prepared 2) 10 μL of agonist reference compound at 5 times EC80 concentration was transferred from the composite plate to the cell plate.
(§13) 3) Fluorescence signals were read.
(§14) 4) The “Max-Min” was calculated from Read 90 to the maximum allowed h) Data was analyzed by using Prism, the IC50 values of the compounds were calculated.

CCR5 = molecular target: T2, CCR5 (Homo sapiens, UniProt P51681); assay: CCR5 FLIPR Calcium assay (intracellular calcium signaling); format: cell-based; conditions: HEK293 host cells, clone C13; agonist RANTES; Fluo-4 calcium signal
T2 construct: expressed in transfected cells; host or cells: HEK293, clone C13, passage P4
T2 sequence (P51681 whole entry, species assumed): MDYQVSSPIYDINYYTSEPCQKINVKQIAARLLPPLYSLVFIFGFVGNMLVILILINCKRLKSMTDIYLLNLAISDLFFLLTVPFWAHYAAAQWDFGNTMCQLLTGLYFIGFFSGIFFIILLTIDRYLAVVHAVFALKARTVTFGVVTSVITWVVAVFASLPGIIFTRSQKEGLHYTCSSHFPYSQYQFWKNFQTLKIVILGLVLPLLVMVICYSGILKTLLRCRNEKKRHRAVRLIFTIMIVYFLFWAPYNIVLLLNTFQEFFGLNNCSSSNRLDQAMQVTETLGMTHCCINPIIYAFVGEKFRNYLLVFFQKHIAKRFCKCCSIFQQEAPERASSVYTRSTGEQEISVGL
Description: as §1, §2, §3, §4, §5, §6, §7, §8, §9, §10, §11, §12, §13, §14

CYP3A4 = molecular target: T3, CYP3A4 (Homo sapiens, UniProt P08684); assay: Inhibition of human liver microsomal CYP3A4 activity; format: in vitro ADME; conditions: human liver microsomes, conclusion
T3 construct: from tissue; host or cells: human liver microsomes
T3 sequence (P08684 whole entry): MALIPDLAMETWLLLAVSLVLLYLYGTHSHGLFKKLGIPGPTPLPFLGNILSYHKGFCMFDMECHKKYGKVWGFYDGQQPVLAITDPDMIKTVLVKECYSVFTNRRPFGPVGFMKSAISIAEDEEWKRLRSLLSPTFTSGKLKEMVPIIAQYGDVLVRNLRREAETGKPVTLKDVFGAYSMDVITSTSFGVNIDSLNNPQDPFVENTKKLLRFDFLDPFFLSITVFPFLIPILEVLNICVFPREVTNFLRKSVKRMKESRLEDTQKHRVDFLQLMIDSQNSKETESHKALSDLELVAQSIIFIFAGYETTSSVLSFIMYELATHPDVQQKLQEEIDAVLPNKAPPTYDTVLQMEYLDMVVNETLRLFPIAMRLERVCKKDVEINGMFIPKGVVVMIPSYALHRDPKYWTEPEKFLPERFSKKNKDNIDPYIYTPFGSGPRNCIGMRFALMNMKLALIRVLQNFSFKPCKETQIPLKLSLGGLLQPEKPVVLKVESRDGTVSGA
Description: A total of five specific probe substrates for the five isozymes of CYP, phenacetin (CYP1A2), diclofenac (CYP2C9), (S′)-mephenytoin (CYP2C19), dextromethorphan ([…]), and midazolam (CYP3A4), were incubated respectively with human liver microsomes and the test compounds, and the reaction was initiated by the addition of reduced nicotinamide adenine dinucleotide phosphate (NADPH), and the samples were treated and the concentrations of the five metabolites produced by the specific substrates, acetaminophen, 4′-hydroxydiclofenac, 4′-hydroxymephenytoin, dextrorphan and 1′-hydroxymidazolam were measured by liquid chromatography tandem mass spectrometry (LC-MS/MS) after the end of the reaction, and the corresponding half maximal inhibitory concentrations (IC50) were calculated.

[1] = Comparative pharmacokinetic test in mice; format: in vivo, C57BL/6 male mice; conditions: mice
Description: C57BL/6 male mice were used as test animals in the present study, and the plasma drug concentrations of the test compound WX009 and the reference compound in mice by intravenous administration or oral administration were quantified by LC/MS/MS method at different time points respectively to evaluate the pharmacokinetic characteristics of the two test drugs in mice.
A clarified solution of the test compound was injected via tail vein into C57BL/6 mice (overnight fasting, 7-10 weeks old), and the test compound was given by gavage into C57BL/6 mice (overnight fasting, 7-10 weeks old). Approximately 30 μL of blood was collected from the jugular or tail vein at 0.0833, 0.25, 0.5, 1, 2, 4, 6, 8, and 24 hours after administration, and placed in anticoagulation tubes added with EDTA-K2, then centrifuged at 4° C. for 15 minutes at 3000 g to give the plasma. Plasma drug concentration was determined by LC-MS/MS, and relevant pharmacokinetic parameters were calculated using WinNonlin™ Version 6.3 (Pharsight, Mountain View, CA) pharmacokinetic software with a non-compartmental model linear logarithmic trapezoidal method.

Compound	pIC50 (CCR2)	pIC50 (CCR5)	other results
CCCCOCCOc1ccc(-c2ccc3c(c2)C=C(C(=O)Nc2ccc([S+]([O-])Cc4c(CC)ccnc4C)cc2)CCCN3CC2CCOCC2)cc1 (single isomer, unassigned) [WX006]	7.80	–	–
CCCCOCCOc1ccc(-c2ccc3c(c2)/C=C(/C(=O)Nc2ccc([S@+]([O-])Cc4cnc(C)cc4CC)cc2)CCCN3C[C@H]2CCCO2)cc1 (single isomer, unassigned) [WX016]	8.76	7.78	–
CCCCOCCOc1ccc(-c2ccc3c(c2)/C=C(/C(=O)Nc2ccc([S@+]([O-])Cc4c(CC)ccnc4C)cc2)CCCN3C[C@H]2CCCO2)cc1 (single isomer, unassigned) [WX011]	8.94	8.42	–
CCCCOCCOc1ccc(-c2ccc3c(c2)/C=C(/C(=O)Nc2ccc([S@+]([O-])Cc4c(CC)ccnc4C)cc2)CCCN3C[C@H]2CCCO2)cc1 (single isomer, unassigned) [WX010]	7.86	–	–
Cenicriviroc [(Cenicriviroc), reference compound]	–	–	Inhibition of CYP3A4 (in words) (CYP3A4; listed as reference compound): strong inhibitory effect; Inhibition of CYP3A4 (in words) (CYP3A4; listed as reference compounds): strong inhibition
CCCCOCCOc1ccc(-c2ccc3c(c2)/C=C(/C(=O)Nc2ccc([S+]([O-])Cc4cnccc4CC)cc2)CCCN3CC2CCOCC2)cc1 (stereo not shown) [WX001]	7.75	8.36	–
CCCCOCCOc1ccc(-c2ccc3c(c2)C=C(C(=O)Nc2ccc([S+]([O-])Cc4c(CC)ccnc4C)cc2)CCCN3CC2CCCO2)cc1 (single isomer, unassigned) [WX008]	7.82	–	–
CCCCOCCOc1ccc(-c2ccc3c(c2)C=C(C(=O)Nc2ccc([S+]([O-])Cc4cnc(C)cc4CC)cc2)CCCN3CC2CCCO2)cc1 (single isomer, unassigned) [WX015]	7.67	–	–
CCCCOCCOc1ccc(-c2ccc3c(c2)C=C(C(=O)Nc2ccc([S+]([O-])Cc4cnccc4CC)cc2)CCCN3CC2COCCO2)cc1 (single isomer, unassigned) [WX002]	7.71	8.13	–
CCCCOCCOc1ccc(-c2ccc3c(c2)C=C(C(=O)Nc2ccc([S+]([O-])Cc4cnc(C)cc4CC)cc2)CCCN3CC2CCOCC2)cc1 (single isomer, unassigned) [WX013]	7.70	–	–
CCCCOCCOc1ccc(-c2ccc3c(c2)C=C(C(=O)Nc2ccc([S+]([O-])Cc4cnccc4CC)cc2)CCCN3CC2COCCO2)cc1 (single isomer, unassigned) [WX003]	7.78	7.93	–
CCCCOCCOc1ccc(-c2ccc3c(c2)/C=C(/C(=O)Nc2ccc([S@@+]([O-])Cc4cncn4CCC)cc2)CCCN3CC(C)C)cc1 [(Cenicriviroc), Cenicriviroc, reference compound]	–	–	half-life ([1]; male, C57BL/6, mouse, plasma, intravenous injection 2 mg/kg): 3.55 h; clearance ([1]; male, C57BL/6, mouse, plasma, intravenous injection 2 mg/kg, read-out: Plasma clearance rate): 2.28 mL/min/kg; bioavailability ([1]; male, C57BL/6, mouse, plasma, oral 10 mg/kg): 6.02%; Area under the time-concentration curve (0-inf) ([1]; oral 10 mg/kg): 6.401 µM·h; Peak concentration ([1]; oral 10 mg/kg): 1533 nM; Peak time ([1]; oral 10 mg/kg): 1.0 h
CCCCOCCOc1ccc(-c2ccc3c(c2)C=C(C(=O)Nc2ccc([S+]([O-])Cc4cnccc4CC)cc2)CCCN3CC2CCCO2)cc1 (single isomer, unassigned) [WX004]	7.71	8.19	–
CCCCOCCOc1ccc(-c2ccc3c(c2)C=C(C(=O)Nc2ccc([S+]([O-])Cc4cnc(C)cc4CC)cc2)CCCN3CC2CCCO2)cc1 (single isomer, unassigned) [WX014]	8.86	7.92	–
CCCCOCCOc1ccc(-c2ccc3c(c2)/C=C(/C(=O)Nc2ccc([S@@+]([O-])Cc4cncn4CCC)cc2)CCCN3CC2CC2)cc1 [Reference A, reference compound]	–	–	Inhibition of CYP3A4 (in words) (CYP3A4): strong inhibition
CCCCOCCOc1ccc(-c2ccc3c(c2)C=C(C(=O)Nc2ccc([S+]([O-])Cc4cnccc4CC)cc2)CCCN3CC2CCCO2)cc1 (single isomer, unassigned) [WX005]	7.68	8.05	–

The next lines start with results.

pIC50 (CCR2)	pIC50 (CCR5)	Compound	other results
7.47	–	CCCCOCCOc1ccc(-c2ccc3c(c2)/C=C(/C(=O)Nc2ccc([S@+]([O-])Cc4cnc(C)cc4CC)cc2)CCCN3C[C@H]2CCCO2)cc1 (single isomer, unassigned) [WX017]	–
–	7.87	CCCCOCCOc1ccc(-c2ccc3c(c2)/C=C(/C(=O)Nc2ccc([S+]([O-])Cc4cnc(C)cc4C)cc2)CCCN3CC2CCOCC2)cc1 (stereo not shown) [WX022]	–
–	8.41	CCCCOCCOc1ccc(-c2ccc3c(c2)C=C(C(=O)Nc2ccc([S+]([O-])Cc4c(C)ccnc4C)cc2)CCCN3CC2CCOCC2)cc1 (single isomer, unassigned) [WX019]	–
–	7.95	CCCCOCCOc1ccc(-c2ccc3c(c2)/C=C(/C(=O)Nc2ccc([S+]([O-])Cc4cnc(C)cc4C)cc2)CCCN3CC2CCCO2)cc1 (single isomer, unassigned) [WX024]	–
–	8.25	CCCCOCCOc1ccc(-c2ccc3c(c2)/C=C(/C(=O)Nc2ccc([S+]([O-])Cc4c(C)ccnc4C)cc2)CCCN3CC2CCCO2)cc1 (single isomer, unassigned) [WX020]	–
8.65	8.37	CCCCOCCOc1ccc(-c2ccc3c(c2)/C=C(/C(=O)Nc2ccc([S@+]([O-])Cc4c(CC)ccnc4CC)cc2)CCCN3CC2CCOCC2)cc1 [WX025]	–
–	7.82	CCCCOCCOc1ccc(-c2ccc3c(c2)C=C(C(=O)Nc2ccc([S+]([O-])Cc4c(C)ccnc4C)cc2)CCCN3CC2CCOCC2)cc1 (single isomer, unassigned) [WX018]	–
–	8.01	CCCCOCCOc1ccc(-c2ccc3c(c2)/C=C(/C(=O)Nc2ccc([S+]([O-])Cc4cnc(C)cc4C)cc2)CCCN3CC2CCCO2)cc1 (single isomer, unassigned) [WX023]	–
–	8.23	CCCCOCCOc1ccc(-c2ccc3c(c2)/C=C(/C(=O)Nc2ccc([S+]([O-])Cc4c(C)ccnc4C)cc2)CCCN3CC2CCCO2)cc1 (single isomer, unassigned) [WX021]	–
